The subject of this assay is Hydrocotyle species (HYDSS). As to the kind of experiment: Post emergent synergy field study, penoxsulam + dicamba granule. In kind it is in vivo. The settings on record: 112 gai/Ha on 30-3-4 granule fertilizer, average of 2 studies 4 weeks after application. The method, then: Field and greenhouse studies were conducted to determine if there may be any synergistic response when penoxsulam is combined with other herbicides for post emergence broadleaf or sedge control. Field studies were conducted in established turfgrass sites containing a natural population of target broadleaf weeds. Replicated trials, containing a minimum of three replications and having individual plots ranging in size from 25 to 50 ft. sq (2.3 to 4.6 square meters), were initiated in the late spring when turf and weeds were actively growing. Granule treatments were uniformly applied to individual plots using a common hand-shaker method. Applications were made in the early morning when dew was present. Natural rainfall and supplemental irrigation were used to maintain healthy turf and active weed growth throughout the study period. Control of each weed species in the study site was made at 2, 4 and 8 weeks after treatment. Control was determined visually by comparing treated and untreated weeds and scored on a 0 to 100 percent scale where 0 corresponds to no control and 100 corresponds to complete kill.
Component A was penoxsulam at 0.02 or 0.04 lb ai/A. Component B was dicamba at 0.1 lb ai/A. Individual products and mixture were applied on a 30-3-4 granule fertilizer formulated to deliver 116 pounds fertilizer per acre (129 kg per hectare). Loadings for the individual component on the fertilizer were: • Penoxsulam 22.4 gai/Ha (0.02 lb ai/A)=0.017% • Penoxsulam 44.9 gai/Ha (0.04 lb ai/A)=0.034% • Dicamba 112 gae/Ha (0.1 lb ai/A)=0.086%
For combinations the same loadings were applied to the same granule carrier and applied as a single product to test area.

In the case of `COc1c(Cl)ccc(Cl)c1C(=O)O` [Dicamba, dicamba, reference compound], the “% Control Component B” value is 29%.
